Assays:
patients with CHF [1] = settings: treatment of CHF; cited from earlier work
patients with CHF [2] = assay: US Carvedilol Heart Failure Trials: mortality studies in CHF patients (multicenter, double-blind, placebo-controlled, intention-to-treat); assay type: in vivo, humans; set-up: All Cause Mortality / Risk Reduction, all-cause mortality / Mortality / Risk Reduction, mortality: concentration or dose not given beside the values; settings: for Risk Reduction, mortality / Risk Reduction, all-cause mortality: versus placebo
Excerpt: To determine if β-adrenergic blockade might inhibit the deleterious effects of the sympathetic nervous system on survival in heart failure (CHF), 1052 patients with CHF were prospectively enrolled into a multicenter trial program, in which patients were randomly assigned (double-blind) to 6-12 months' treatment with placebo (PBO) or carvedilol (CRV),. After a common screening period, patients with class II-IV CHF (see next paragraph for the definitions of the classification of CHF) and an ejection fraction ≦0.35 were assigned to one of four protocols based on performance on a 6-minute walk test. PBO or CRV was added to existing therapy with digoxin, diuretics and an ACE inhibitor. All-cause mortality was monitored by a prospectively constituted Data and Safety Monitoring Board (DSMB). After 25 months of enrollment, the DSMB recommended termination of the program because of a favorable effect of CRV on survival. By intention-to-treat, mortality was 8.2% in the PBO group but only 2.9% in the CRV group (P=0.0001, Cochran-Mantel-Haensel analysis). This represented a reduction in risk of death by CRV of 67% (95% CI: 42% to 81%). The treatment effect was similar in patients with class II and class III-IV symptoms. Mortality was reduced in class II patients from 5.9% to 1.9%, a 68% reduction (95% CI: 20% to 97%) [P=0.015,], and in class III-IV patients from 11.0% to 4.2%, a 67% reduction (95% CI: 30% to 84%), [P=0.004, log-rank]. Importantly, the effect of CRV was similar in ischemic heart disease (risk reduced by 67%, P=0.003) and in non-ischemic dilated cardiomyopathy (risk reduced by 67%, P=0.014). […] The treatment effect is seen across a broad range of severity and etiology of disease.
Patients on background therapy with diuretics, ACE inhibitors and/or digoxin were stratified on the basis of baseline submaximal exercise performance, into one of four trials: study 220, a dose response study in moderate (NYHA II-IV) CHF with exercise testing as a primary endpoint study 221, a dose titration study in moderate (NYHA II-IV) CHF with exercise testing as a primary endpoint study 239, a dose titration study in severe (NYHA III-IV) CHF with quality of life as a primary endpoint study 240, a dose titration study in mild (NYHA II-III) CHF with progression of CHF as a primary endpoint Sixty-four centers in the U.S. participated in the trial program. All sites conducted protocols 239 and 240, while 33 performed protocol 220 and 31 performed protocol 221.
Although each trial had its own individual objectives, the overall program objective defined prospectively was evaluation of all-cause mortality. Based upon a projected enrollment of 1100 patients, the program had 90% power to detect a 50% reduction in mortality (two-sided) between carvedilol and placebo, assuming a mortality rate in the placebo group of 12% over the duration of the trials (α=0.05).
Randomization was preceded by a screening and challenge period common to the four protocols The purpose of the screening period was to qualify patients for study entry, obtain reproducible baseline measurements, and stratify patients into the appropriate trial based on submaximal exercise testing. During the challenge period, patients received low-dose open-label carvedilol (6.25 mg b.i.d.) for two weeks. […] Patients tolerating low-dose carvedilol were then randomized to blinded medication (carvedilol or placebo) with the dose titrated over several weeks in the range of 6.25 to 50 mg b.i.d. (or equivalent level of placebo). The maintenance phase of each study ranged from six to 12 months, after which patients had the option of receiving open-label carvedilol in an extension study.
The analysis presented below corresponds to the data set on which the DSMB made the recommendation to terminate the trials. Included in this intent-to-treat analysis are all patients enrolled in the U.S. trials as of Jan. 20, 1995; 624 receiving carvedilol and 356 placebo.

[3] = Class III-IV CHF, listed as CRV

SMILES: COCCc1ccc(OCC(O)CNC(C)C)cc1 (stereo not shown) [metoprolol]
- Difference in mortality between drug-treated patients and placebo-treated patients (patients with CHF [1]): no difference in mortality

SMILES: CC(C)NCC(O)COc1ccc(COCCOC(C)C)cc1 (stereo not shown) [bisoprolol]
- Difference in mortality between drug-treated patients and placebo-treated patients (patients with CHF [1]): no difference in mortality

SMILES: COc1ccccc1OCCNCC(O)COc1cccc2[nH]c3ccccc3c12 (stereo not shown) [Carvedilol]
- Mortality (patients with CHF [2]; Class II CHF): (1.9%)
- Mortality (deaths/patients) (patients with CHF [2]; Class II CHF): 7/361
- Risk Reduction, mortality (patients with CHF [2]; Class II CHF): 68%
- Risk Reduction, mortality (patients with CHF [2]; Class II CHF, listed as CRV): 68%
- Mortality (patients with CHF [2]; Class II CHF, listed as CRV): 1.9%
- Mortality (patients with CHF [2]; Class III-IV CHF): (4.2%)
- Mortality (deaths/patients) (patients with CHF [2]; Class III-IV CHF): 11/263
- Risk Reduction, mortality (patients with CHF [2]; Class III-IV CHF): 66%
- Risk Reduction, mortality (patients with CHF [2]; [3]): 67%
- Mortality (patients with CHF [2]; [3]): 4.2%
- Mortality (patients with CHF [2]; Ischemic Etiology): (3.2%)
- Mortality (deaths/patients) (patients with CHF [2]; Ischemic Etiology): 10/311
- Risk Reduction, mortality (patients with CHF [2]; Ischemic Etiology): 67%
- Risk Reduction, mortality (patients with CHF [2]; Ischemic Etiology, listed as CRV): 67%
- Mortality (patients with CHF [2]; Non-Ischemic Etiology): (2.5%)
- Mortality (deaths/patients) (patients with CHF [2]; Non-Ischemic Etiology): 8/313
- Risk Reduction, mortality (patients with CHF [2]; Non-Ischemic Etiology): 67%
- Risk Reduction, mortality (patients with CHF [2]; Non-Ischemic Etiology, listed as CRV): 67%
- All Cause Mortality (patients with CHF [2]; all patients, intent-to-treat): (2.9%)
- All Cause Mortality (deaths/patients) (patients with CHF [2]; all patients, intent-to-treat, added to digoxin, diuretics and ACE inhibitor, 6.25 to 50 mg b.i.d.): 18/624
- All Cause Mortality (patients with CHF [2]; all patients, intent-to-treat, listed as CRV): 2.9%
- Risk Reduction, all-cause mortality (patients with CHF [2]; all patients): 67%
- Risk Reduction, all-cause mortality (patients with CHF [2]; all patients, listed as CRV): 67%
